The values below are quoted from earlier work in PMC9823088, “The oral selective estrogen receptor degrader GDC-0810 (ARN-810) in postmenopausal women with hormone receptor-positive HER2-negative (HR + /HER2 −) advanced/metastatic breast cancer” (Breast Cancer Research and Treatment, 2022).

Each structure is given as a SMILES string.

Data set [1] concerns tamoxifen-sensitive ER + breast cancer xenograft. The conditions noted are these: tamoxifen-sensitive ER + breast cancer xenograft models; cited from earlier work.
A further data set deals with CYP2C enzymes. On the set-up: method as in printed. To be noted: stated as reason for dose adjustments; ref not given; cited from earlier work.

For the compound `CC/C(=C(/c1ccc(/C=C/C(=O)O)cc1)c1ccc2[nH]ncc2c1)c1ccc(F)cc1Cl` [GDC-0810], the tumor regression entry in data set [1] is listed as “induced tumor regression”. For the same compound, the “effects on CYP2C enzymes” value with CYP2C enzymes is given as “inhibitory effects”.
